No end group written: not given here. *: point of attachment. FITC = O=C1OC2(c3ccc(O)cc3Oc3cc(O)ccc32)c2ccc(NC(=S)*)cc21
Assays:
CHO and HepG2 cells = assay: Uptake analysis of pep1-FITC in vitro by flow cytometry (primary experiment); type: cell-based
Experimental: Flow cytometry and Confocal microscopy analysis were performed to compare the degree of cellular uptake among differentcell lines treated with pep1 (SEQ ID NO: 1) and the previously known PTD, TAT ([…]) (SEQ ID NO: 10) of HIV.
(§1) Cells were cultured at 37° C., 5% CO2 incubator and grown to 90˜100% confluence. The confluence. The medium was removed and washed with PBS, 1 mL of OPTI-MEM was added to each well and cultured at 37° C., 5% CO2 incubator for an hour for cell starvation. After washing with OPTI-MEM once, cells were treated with peptide in OPTI-MEM (concentration of […]) and FITC (concentration of 10 μM), cultured at 37° C., 5% CO2 incubator. After removing the medium, cells were washed with 1×PBS three times and harvested using Trysin/EDTA. The cellular uptake of FITC and the rest of FITC-conjugated peptide was compared and analyzed with untreated cell cells as a control.

Huh7 cell line = assay: Flow cytometry of cell penetrating property in Huh7 cell line; type: cell-based, human
Experimental: (§2) The cell line was divided in a 6-well plate and cultured in a medium containing 10% fetal bovine serum (Invitrogen, USA), 100 μg/ml penicillin, 100 units/ml streptomycin at 37° C., 5% CO2 incubator for 12 hours. After washing the cell line with PBS, starvation was induced in a Minimum Essential Medium for an hour. 20 uM of each carrier peptide was treated and cultured at 37° C. for an hour. After repeating the step of washing the cells with PBS for three times, Trypsin-EDTA was treated form 10 mins at 37° C. to separate the carrier peptide on the outside of the cell. cells were collected with refrigerated PBS and centrifugation was performed to repeat the step of washing the cells for three times. After then, the cells were suspended in 0.5 ml of PBS containing 4% Paraformaldehyde and fluorescence of the cells was analyzed using FACS Calibur (Becton Dickinson). The cellular uptake aspect of control and various peptides combined with FITC was compared and analyzed by MFI (Mean Fluorescence Intensity).
To investigate cell penetrating property of PEP1, flow cytometry was performed in Huh7 cell line treated with PEP1. The analytical methods used were same as described in above (1) HeLa cell line analysis. […] (FIG. 9 and FIG. 10)

human T lymphocyte = assay: FACS of cell penetrating property in human T lymphocyte; type: cell-based
Experimental: as §2
To investigate cell penetrating property of PEP1, the peptide was treated in human T lymphocyte, and FACS (Fluorescence-activated sell sorting) was performed as flow cytometry analysis. The analytical method used was same as described in above (1) HeLa cell line analysis. […] (FIG. 11 and FIG. 12)

Huh7, bmDC, CHO, COS7 = assay: Flow cytometry depending on concentration in various cell lines; type: cell-based
Experimental: as §1
(§3) Cell penetrating property of PEP1 was investigated by treating PEP1 with various cell various cell lines depending on concentrations and time. Specific analytical methods followed the methods described in Example 2. […] In the case of HepG2 cell line, cell penetrating property of TAT was increased whereas that of PEP1 was decreased at a concentration of 50 μM. […] When observing cell penetrating property of the peptide depending on time, the cell penetrating property was increased in Huh7, MCF7 and HeLA cell lines. Especially, in MCH7 cell line when 5 μM of the peptide was treated, cell penetrating property was increased 10 times higher in all time (FIG. 24 to FIG. 26)

HepG2 cell line = assay: Flow cytometry depending on concentration, HepG2; type: cell-based, human; details: HepG2, 50 μM
Experimental: as §1, §3

MCF7 cell line = assay: Flow cytometry depending on concentration and time, MCF7; type: cell-based, human
Experimental: as §1, §3

[1] = system: Huh7, MCF7 and HeLA cell lines; assay: Flow cytometry depending on time; type: cell-based, human
Experimental: as §1, §3

[2] = system: THP1 (Human mononuclear cell line); assay: Flow cytometry of cell penetrating property, THP1; type: cell-based
Text: (§4) Jurkat (Human T cell line), THP1 (Human mononuclear cell line), Raji (Human B cell line), K562 cell line (Human Leukemia cell line) were used as enriched cell line to treat the peptide depending on concentrations, temperature and time and to analyze the cell penetrating property of the peptide. […] There was no difference in cell penetrating property of PEP1 in all cell lines depending on temperature.

Jurkat, THP1, Raji, K562 = assay: Cell penetrating property depending on concentration, temperature and time in enriched cell lines; type: cell-based, human
Text: as §4

human PBMC [3] = assay: Flow cytometry of cell penetrating property in human PBMC; type: cell-based
Experimental: PBMC (peripheral blood mononuclear cell) and lymphocytes were prepared from the human blood samples (50 ml) collected from healthy subjects using Biocoll Separating Solution (Biochrom AG, Berlin, Germany).
PBMC separated from human blood was used to treat the peptide depending on concentrations, temperature and time and to analyze the cell penetrating property of the peptide. […] Depending on concentrations, cell penetrating property of PEP1 was increased in both lymphocytes and the monocytes. […] (FIG. 32 to FIG. 34)

human PBMC [4] = assay: Flow cytometry after chemical treatment, human PBMC; type: cell-based; details: whole PBMC, chemical treatment an hour before peptide
Experimental: With PBMC separated from human blood, chemical treatment utilization analysis was performed to verify a mechanism of cell penetration. Concentration of chemical treatment was decided based on the data reported in JBC(278(36), 34141-34149 in […]. OPTI-MEM was treated with chemical treatment and washed with PBS an hour before PEP1 peptide was treated and flow cytometry analysis was performed.
(§5) To compare and analyze the cell penetrating property of the peptide using various various antibodies, HSP70, enolase, GAPDH (santacruz), HSP90 antibodies were used. Cells were treated with heparin (10 μg/ml), methyl beta cyclodextrin (5 mM), nocodazole (20 μM), Brefeldin A (10 μM), cytochalasin F (5 μM) or choloroqune (100 μM) an hour before cells were cultured by the peptide. After then, cells were washed with PBS, peptide treatment was performed by flow cytometry analysis as the same method described in Example 2. Anti-HSP70, anti-Enolase and anti-GAPDH antibodies were purchased from Santacruz and anti-HSP90 antibody as purchased from Abcam. To analyze the role of each protein in penetration into cells, cells were treated with antibodies corresponding to the proteins with the same method.

Jurkat cell line = assay: Flow cytometry after chemical treatment, Jurkat; type: cell-based, human; details: all of the chemical treatment
hPBMC = assay: Cell penetrating property after treatment with various antibodies; type: cell-based, human
Experimental: The fact that HSP70/90 plays an important role in cell penetrating property of Pep1 was analyzed using HSP70/90 antibody. Antibodies of GAPDH, HSP70, HSP90 and enolase were treated in PBMC separated from human blood, lymphocyte, and Jurkat to perform flow cytometry. Antibodies of GAPDH and enolase were used as control.
as §5

luciferase in Huh7 cells = assay: Luciferase assay with siRNA-CPP conjugates, Huh7; type: cell-based, human; details: Huh cell line, siRNA 400 nM, 16 hours
Experimental: Huh7 (human hepatocellular carcinoma) cells obtained from ATCC was cultured in a RPMI 1640 medium (Hyclon) containing 10% fetal bovine serum (Invitrogen Co., Carlsbad, Calif., USA), […] L-glutamine, 100 ug/ml penicillin and 100 units/ml of streptomycin at 37° C., 5% CO2 incubator.
2×10^5 of Huh7 cells were inserted into each well of a 24 well plate and were grown. Transient transfection on the cells was performed using 2 ug of luciferase objective DNA and lipofectamin 2000 (Invitrogen Co., Carlsbad, Calif., USA). After 4 hours, lipofectamin 2000 was perfectly washed with PBS several times; siRNA of final concentration of […] was treated in 500 ul of Opti-MEM (Invitrogen Co., Carlsbad, Calif., USA) and was reacted at 37° C. incubator for 16 hours. To terminate the reaction, cells were washed with PBS and proteins were lysed using Reporter Lysis Buffer (Progema Co., Madison, Wis., USA) solution and the luminescence was measured by luminometer (Turner BioSystem, Sunnyvale, Calif., USA) using luciferase reagent (Promega Co., Madison, Wis., USA). Efficacy of siRNA was corrected by Bradford protein assay.

Huh7, HepG2, CHO, bmDC = assay: Flow cytometry and confocal analysis depending on location of FITC; type: cell-based; details: fluorescence microscope
Experimental: as §2
To investigate cell penetrating property of PEP1 in various cell lines, flow cytometry and Confocal microscope analysis were performed using a conjugate of PEP1 combined with FITC at N, and C-terminal of the peptide. The analytical method used was same as described in above (1) HeLa cell line analysis. The cell lines used were Huh7, HepG2, CHO, bmDC. […] (FIG. 14)

Raji (Human B cell line) = assay: Flow cytometry of cell penetrating property, Raji; type: cell-based
Text: as §4

[5] = system: K562 cell line (Human Leukemia cell line); assay: Flow cytometry of cell penetrating property, K562; type: cell-based
Text: as §4

EARPALLTSRLRFIPK (listed as Homo sapiens) [pep1]
cell penetrating ability depending on position of FITC (CHO and HepG2 cells): best when FITC was conjugated with lysine residue in C terminal
cell penetrating ability compared with TAT (CHO and HepG2 cells; FITC-labelled peptides): better cell penetrating ability than TAT
cell penetrating property compared with TAT and control (Huh7 cell line): lower than that of TAT but higher than that of control
cell penetrating property, times higher than HIV derived TAT (human T lymphocyte): 6 times
cell penetrating property, times higher than control FITC (human T lymphocyte): 25 times
cell penetrating property depending on concentrations (Huh7, bmDC, CHO, COS7): tendency to increase
cell penetrating property at a concentration of 50 μM (HepG2 cell line): decreased
cell penetrating property, times higher than TAT (MCF7 cell line; MCF cell line): 4 times
cell penetrating property, times higher in all time (MCF7 cell line; MCH7 cell line, 5 μM of the peptide, comparator not stated): 10 times
cell penetrating property depending on time [1]: increased
cell penetrating property depending on time [2]: decreased over time
cell penetrating property depending on concentrations (Jurkat, THP1, Raji, K562; all cell lines): tendency to increase
cell penetrating property depending on temperature (Jurkat, THP1, Raji, K562; all cell lines): no difference
increase of cell penetrating property depending on time (Jurkat, THP1, Raji, K562; cell lines other than THP1): more than 3 times
cell penetrating property, increase (times) (human PBMC [3]; lymphocytes): 1.8 times
cell penetrating property depending on concentrations (human PBMC [3]; lymphocytes and monocytes): increased
cell penetrating property depending on time (human PBMC [3]; lymphocytes and monocytes): tendency to increase
increase of cell penetrating property compared to TAT (human PBMC [3]; monocytes, 5 hours): more than 20%
cell penetrating property depending on concentrations and time (human PBMC [3]; whole PBMC): increased
cell penetrating property, times higher than TAT (human PBMC [3]; whole PBMC): 1.4 times
effect of chemical treatment (MatCD and others) on cell penetrating property (human PBMC [4]): tend to be suppressed
effect of chemical treatment on cell penetrating property (Jurkat cell line): tendency to suppress
absorption after treatment with HSP70 and HSP90 specific antibodies (hPBMC): remarkably reduced

siLuc conjugation with Mercaptoacetyl-Ahx-RQIKIWFQNRRMKWKK [siLuc-Penetratin]
reduction of luciferase activation compared with the same peptide in siRNA combined with control (luciferase in Huh7 cells): approx. 28%

siLuc conjugation with Mercaptoacetyl-Ahx-LRALPKRPFISRLTEA [siLuc-scrambled pep1]
reduction of luciferase activation compared with the same peptide in siRNA combined with control (luciferase in Huh7 cells): no significant difference

pep1-FITC: pep1 labeled with FITC at the C-terminal (lysine) (EARPALLTSRLRFIPK(FITC); listed as Homo sapiens)
penetration into the cytoplasm, C-terminal vs N-terminal FITC (Huh7, HepG2, CHO, bmDC): higher cell penetrating property to penetrate into the cytoplasm than PEP1 combined with FITC at N-terminal
absorption after treatment with HSP70 and HSP90 specific antibodies (hPBMC): remarkably reduced
absorption after treatment with GAPDH or Enolase specific antibodies (hPBMC; control antibodies): no effect

siLuc conjugation with Mercaptoacetyl-Ahx-YGRKKRRQRRR (not fully specified (N-terminus); printed as Mercaptoacetyl-Ahx-YGRKKRRQRRR; also: conjugated to luciferase siRNA; UniProt P04608 47-57, looked up, fragment) [siLuc-Tat(47-57)]
reduction of luciferase activation compared with the same peptide in siRNA combined with control (luciferase in Huh7 cells): no significant difference

YGRKKRRQRRR [TAT, reference compound]
cell penetrating property depending on concentrations (Huh7, bmDC, CHO, COS7): tendency to increase
cell penetrating property at a concentration of 50 μM (HepG2 cell line): increased
cell penetrating property, TAT compared with PEP1 (Raji (Human B cell line)): higher cell penetrating property than PEP1
cell penetrating property, TAT compared with PEP1 [5]: higher cell penetrating property than PEP1
cell penetrating property depending on concentrations and time (human PBMC [3]; whole PBMC): increased
effect of chemical treatment (MatCD and others) on cell penetrating property (human PBMC [4]): increased
effect of chemical treatment on cell penetrating property (Jurkat cell line): no effect
absorption after treatment with HSP70 and HSP90 specific antibodies (hPBMC): not affected
